pIC50, pKi: −log10 of the molar value.

The target of test [1] is cathepsin D (Homo sapiens, UniProt P07339). In words: Inhibition of cathepsin D catalytic activity (Ki). The class given is biochemical. The following applies: pH 4.0, 37° C., read-out: CDK. The method, then: A substrate peptide NH3-ELDLAVEFWHDR-CO2 (SEQ ID NO.:1) (used for inhibition assay of memapsin 2, memapsin 1, and cathepsin D) was dissolved at 2 mg/ml in DMSO and diluted 1:100 in 0.1 M sodium acetate, pH 4.0 just prior to assay. Inhibitor dissolved in DMSO was diluted into 0.1 M sodium acetate, pH 4.0 (1:100 dilution). A […] aliquot of the inhibitor solution in pH 4 buffer was combined with […] of 0.1 M sodium acetate containing 100-200 nM of memapsin 1, memapsin 2, or cathepsin D. Following a pre-incubation at 37° C., the proteolytic assay was initated by addition of […] of the substrate diluted into pH 4 buffer, and incubation continued at 37° C. Aliquots were removed at time intervals, and combined with an equal volume of MALDI-TOF matrix (α-hydroxycinnamic acid in acetone, 20 mg/ml) and immediately spotted in duplicate onto a stainless-steel MALDI sample plate. MALDI-TOF mass spectrometry was performed on a PE Biosystems Voyager DE instrument at the Molecular Biology Resource Center on campus. The instrument was operated at 25,000 accelerating volts in positive mode with a 150 ns delay. Ions with a mass-to-charge ratio (m/z) were detected in the range of 650-2000 atomic mass units. Data were analyzed by the Voyager Data Explorer module to obtain ion intensity data for mass species of substrates and corresponding products in a given mixture. Relative product formation was calculated as the ratio of signal intensity of the product to the sum of signal intensities of both product and the corresponding substrate. Relative product formed per unit time was obtained from non-linear regression analysis of the data representing the initial 15% formation of product using the model: 1−e^−kT, where k was the relative hydrolytic rate constant and T was time in seconds. Alternatively, relative hydrolytic rates were determined using a fluorogenic cleavage assay (Ermolieff, J. et al., Biochemistry, 39: 12450-12456 (2000)). Initial rates from either method were expressed relative to uninhibited controls and the inhibition constant Ki was determined by a non-linear fit to a tight-binding model of competitive inhibition (Bieth, J., Bayer-Symposium V: Proteinase Inhibitors, pp 463-469, Spinger-Varlag, Berlin (1994)). Results are shown in Table 1 above (M2K, CDK, and M1K columns represent, respectively, the K1 values obtained for memapsin 2, cathepsin D and memapsin 1).

In test [2] the test system is Aβ production in Chinese hamster ovary cells that over-express human APP695 with the London and Swedish mutations. The test is described as follows: Cellular Aβ IC50 determination (Aβ40 sandwich ELISA). The following applies: Cricetulus griseus, CHO, 24 h, read-out: Cell, Aβ40, CHO cells over-expressing human APP695 (London and Swedish mutations), 24 h.
In test [3] the target is memapsin 2 (Homo sapiens, UniProt P56817). In words: Inhibition of memapsin 2 catalytic activity (Ki). The following applies: memapsin 2, pH 4, 37° C.; read-out: M2K. The class given is biochemical. A digest of the protocol: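 Run at 37 °C and pH 4: compound and enzyme pre-incubated 20 min before FS-2 fluorogenic substrate started hydrolysis,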

Sequence of memapsin 2 (P56817 46-501): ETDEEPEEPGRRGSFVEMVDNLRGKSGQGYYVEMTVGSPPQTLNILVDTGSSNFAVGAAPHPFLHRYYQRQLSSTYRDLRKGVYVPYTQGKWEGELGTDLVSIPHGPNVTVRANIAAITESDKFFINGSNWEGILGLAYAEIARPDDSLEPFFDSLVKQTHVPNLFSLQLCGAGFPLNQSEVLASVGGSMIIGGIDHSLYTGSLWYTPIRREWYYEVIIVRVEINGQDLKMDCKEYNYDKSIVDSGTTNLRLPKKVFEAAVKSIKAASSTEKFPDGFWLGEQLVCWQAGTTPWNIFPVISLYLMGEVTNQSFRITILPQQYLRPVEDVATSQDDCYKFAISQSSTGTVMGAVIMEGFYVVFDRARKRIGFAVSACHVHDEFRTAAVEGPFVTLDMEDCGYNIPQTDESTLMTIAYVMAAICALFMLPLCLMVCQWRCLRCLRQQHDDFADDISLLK
Sequence of cathepsin D (P07339 65-412, species assumed): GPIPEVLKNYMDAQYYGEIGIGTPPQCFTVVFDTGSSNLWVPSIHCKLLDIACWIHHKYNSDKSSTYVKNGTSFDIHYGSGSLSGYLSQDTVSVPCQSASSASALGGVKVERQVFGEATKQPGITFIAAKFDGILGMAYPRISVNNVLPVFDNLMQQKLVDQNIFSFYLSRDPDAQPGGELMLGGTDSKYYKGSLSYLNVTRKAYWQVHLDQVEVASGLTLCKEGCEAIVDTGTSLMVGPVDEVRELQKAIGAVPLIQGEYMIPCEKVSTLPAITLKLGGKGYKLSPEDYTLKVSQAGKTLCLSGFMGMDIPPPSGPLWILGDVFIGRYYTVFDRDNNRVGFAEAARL

On to `COc1cccc(CNCC(O)C(Cc2ccccc2)NC(=O)c2cc(C(=O)NCc3cncc(O)c3)cc(N(C)S(C)(=O)=O)c2)c1` (stereo not drawn) [N1-(3-hydroxy-4-(3-methoxybenzylamino)-1-phenylbutan-2-yl)-N3-((5-hydroxypyridin-3-yl)methyl)-5-(N-methylmethylsulfonamido)isophthalamide], for which the pKi in test [1] and in test [3] was below 6.30 each time. The pIC50 in test [2] is above 6.00.

As for `CC(NC(=O)c1cc(C(=O)NC(Cc2ccccc2)C(O)CNCc2cnccn2)cc(N(C)S(C)(=O)=O)c1)c1ccccc1` (stereo not drawn) [N1-(3-hydroxy-1-phenyl-4-(pyrazin-2-ylmethylamino)butan-2-yl)-5-(N-methylmethylsulfonamido)-N3-(1-phenylethyl)isophthalamide], the values for the pKi in test [1] and in test [3] were below 6.30 and above 6.52, respectively. Also, in test [2], the pIC50 is above 6.00.

As for `CCc1cccc(CNCC(O)C(Cc2ccccc2)NC(=O)c2cc(C(=O)NC(C)c3ccccc3)cc(N(C)S(C)(=O)=O)c2)c1` (stereo not drawn) [N1-(4-(3-ethylbenzylamino)-3-hydroxy-1-phenylbutan-2-yl)-5-(N-methylmethylsulfonamido)-N3-(1-phenylethyl)isophthalamide], the pKi in test [1] and in test [3] was above 6.52 throughout. Also, the pIC50 in test [2] was above 6.00.

`CC(NC(=O)c1cc(C(=O)NC(Cc2ccccc2)C(O)CNCC2CCCNC2)cc(N(C)S(C)(=O)=O)c1)c1ccccc1` (stereo not drawn) [N1-(3-hydroxy-1-phenyl-4-(piperidin-3-ylmethylamino)butan-2-yl)-5-(N-methylmethylsulfonamido)-N3-(1-phenylethyl)isophthalamide]: the pKi in test [1] and in test [3] was below 6.30 each time. Also, in test [2], the pIC50 is below 5.30.

With `Cc1csc(CN(C)C(=O)c2cccc(C(=O)NC(Cc3ccccc3)C(O)CNCCN3CCCC3)c2)n1` (stereo not drawn) [N1-(3-hydroxy-1-phenyl-4-(2-(pyrrolidin-1-yl)ethylamino)butan-2-yl)-N3-methyl-N3-((4-methylthiazol-2-yl)methyl)isophthalamide], the pKi in test [1] and in test [3] was below 6.30 throughout. Moreover, the pIC50 in test [2] was below 5.30.

As to `COc1cccc(CCNCC(O)C(Cc2ccccc2)NC(=O)c2cccc(C(=O)N(C)Cc3nc(C)cs3)c2)c1` (stereo not drawn) [N1-(3-hydroxy-4-(3-methoxyphenethylamino)-1-phenylbutan-2-yl)-N3-methyl-N3-((4-methylthiazol-2-yl)methyl)isophthalamide], the values for the pKi in test [1] and in test [3] were 6.30 to 6.52 and below 6.30, respectively. The pIC50 in test [2] was below 5.30.

For the molecule `CC(NC(=O)c1cc(C(=O)NC(Cc2ccccc2)C(O)CNCc2cncc(N(C)C)c2)cc(N(C)S(C)(=O)=O)c1)c1ccccc1` (stereo not drawn) [N1-(4-((5-(dimethylamino)pyridin-3-yl)methylamino)-3-hydroxy-1-phenylbutan-2-yl)-5-(N-methylmethylsulfonamido)-N3-(1-phenylethyl)isophthalamide], the figures for the pKi in test [1] and in test [3] were 6.30 to 6.52 and above 6.52, respectively. In addition, the pIC50 in test [2] is above 6.00.

As to `Cc1cncc(CNCC(O)C(Cc2ccccc2)NC(=O)c2cccc(C(=O)N(C)Cc3nc(C)cs3)c2)c1` (stereo not drawn) [N1-(3-hydroxy-4-((5-methylpyridin-3-yl)methylamino)-1-phenylbutan-2-yl)-N3-methyl-N3-((4-methylthiazol-2-yl)methyl)isophthalamide], the pKi in test [1] and in test [3] was above 6.52 each time. Further, the pIC50 in test [2] was above 6.00.

Take `COc1ccc(CCNCC(O)C(Cc2ccccc2)NC(=O)c2cc(C(=O)NC(C)c3ccccc3)cc(N(C)S(C)(=O)=O)c2)cc1` (stereo not drawn) [N1-(3-hydroxy-4-(4-methoxyphenethylamino)-1-phenylbutan-2-yl)-5-(N-methylmethylsulfonamido)-N3-(1-phenylethyl)isophthalamide]: the pKi in test [1] and in test [3] was above 6.52 throughout. In addition, the pIC50 in test [2] was above 6.00.

Consider `CC(NC(=O)c1cc(C(=O)NC(Cc2ccccc2)C(O)CNCc2cnc3ccccc3c2)cc(N(C)S(C)(=O)=O)c1)c1ccccc1` (stereo not drawn) [N1-(3-hydroxy-1-phenyl-4-(quinolin-3-ylmethylamino)butan-2-yl)-5-(N-methylmethylsulfonamido)-N3-(1-phenylethyl)isophthalamide], for which the pKi in test [1] and in test [3] was above 6.52 throughout. The pIC50 in test [2] was above 6.00.

In the case of `Cc1cc(CNCC(O)C(Cc2ccccc2)NC(=O)c2cccc(C(=O)N(C)Cc3nc(C)cs3)c2)on1` (stereo not drawn) [N1-(3-hydroxy-4-((3-methylisoxazol-5-yl)methylamino)-1-phenylbutan-2-yl)-N3-methyl-N3-((4-methylthiazol-2-yl)methyl)isophthalamide], the pKi in test [1] was below 6.30; in test [3] it was above 6.52. In addition, in test [2], the pIC50 was below 5.30.

Regarding `COc1cccc(CNCC(O)C(Cc2ccccc2)NC(=O)c2cccc(C(=O)N(Cc3nc(C)cs3)N(C)C)c2)c1` (stereo not drawn) [3-(2,2-dimethyl-1-((4-methylthiazol-2-yl)methyl)hydrazinecarbonyl)-N-(3-hydroxy-4-(3-methoxybenzylamino)-1-phenylbutan-2-yl)benzamide], the pKi in test [1] and in test [3] was below 6.30 in each case. For the same molecule, the pIC50 in test [2] was below 5.30.

`Cc1cc(CNCC(O)C(Cc2ccccc2)NC(=O)c2cc(C(=O)NC(C)c3ccccc3)cc(N(C)S(C)(=O)=O)c2)on1` (stereo not drawn) [N1-(3-hydroxy-4-((3-methylisoxazol-5-yl)methylamino)-1-phenylbutan-2-yl)-5-(N-methylmethylsulfonamido)-N3-(1-phenylethyl)isophthalamide]: the pKi in test [1] and in test [3] was above 6.52 throughout. Besides, the pIC50 in test [2] was above 6.00.

Take `Cc1cc(CNCC(O)C(Cc2ccccc2)NC(=O)c2cc(C(=O)NC(C)c3ccccc3)cc(N(C)S(C)(=O)=O)c2)no1` (stereo not drawn) [N1-(3-hydroxy-4-((5-methylisoxazol-3-yl)methylamino)-1-phenylbutan-2-yl)-5-(N-methylmethylsulfonamido)-N3-(1-phenylethyl)isophthalamide]: the pKi in test [1] and in test [3] was above 6.52 throughout. Moreover, in test [2], the pIC50 was above 6.00.

For `Cc1csc(CN(C)C(=O)c2cccc(C(=O)NC(Cc3ccccc3)C(O)CNCc3cccc(OC(C)C)c3)c2)n1` (stereo not drawn) [N1-(3-hydroxy-4-(3-isopropoxybenzylamino)-1-phenylbutan-2-yl)-N3-methyl-N3-((4-methylthiazol-2-yl)methyl)isophthalamide], the pKi in test [1] and in test [3] was above 6.52 each time. Also, in test [2], the pIC50 is above 6.00.

`CC(C)c1cncc(CNCC(O)C(Cc2ccccc2)NC(=O)c2cc(C(=O)NC(C)c3ccccc3)cc(N(C)S(C)(=O)=O)c2)c1` (stereo not drawn) [N1-(3-hydroxy-4-((5-isopropylpyridin-3-yl)methylamino)-1-phenylbutan-2-yl)-5-(N-methylmethylsulfonamido)-N3-(1-phenylethyl)isophthalamide]: the pKi in test [1] and in test [3] was above 6.52 each time. The pIC50 in test [2] is above 6.00.

For `CC(NC(=O)c1cc(C(=O)NC(Cc2ccccc2)C(O)CNCc2cccc(C(F)(F)F)c2)cc(N(C)S(C)(=O)=O)c1)c1ccccc1` (stereo not drawn) [N1-(3-hydroxy-1-phenyl-4-(3-(trifluoromethyl)benzylamino)butan-2-yl)-5-(N-methylmethylsulfonamido)-N3-(1-phenylethyl)isophthalamide], the pKi in test [1] and in test [3] was above 6.52 in each case. In test [2], the pIC50 is above 6.00.

With `CC(NC(=O)c1cc(C(=O)NC(Cc2ccccc2)C(O)CNCCN2CCCC2)cc(N(C)S(C)(=O)=O)c1)c1ccccc1` (stereo not drawn) [N1-(3-hydroxy-1-phenyl-4-(2-(pyrrolidin-1-yl)ethylamino)butan-2-yl)-5-(N-methylmethylsulfonamido)-N3-(1-phenylethyl)isophthalamide], the pKi in test [1] and in test [3] was below 6.30 in each case. Moreover, the pIC50 in test [2] is below 5.30.

As to `CC(C)Oc1cncc(CNCC(O)C(Cc2ccccc2)NC(=O)c2cc(C(=O)NC(C)c3ccccc3)cc(N(C)S(C)(=O)=O)c2)c1` (stereo not drawn) [N1-(3-hydroxy-4-((5-isopropoxypyridin-3-yl)methylamino)-1-phenylbutan-2-yl)-5-(N-methylmethylsulfonamido)-N3-(1-phenylethyl)isophthalamide], the pKi in test [1] and in test [3] was above 6.52 each time. Also, the pIC50 in test [2] was above 6.00.

The record behind these values is patent publication US7504420B2, “Compounds which inhibit beta-secretase activity and methods of use” (CoMentis, Inc., priority 2005, dated 2009).
